# Reference: PubChem BioAssay (NCI)
#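 Grown in 96-well plates, cells were treated for 48 hours with each compound at five concentrations. Insufficient inhibition: endpoint recorded as highest concentration tested. TGI denotes the concentration required for complete inhibition of growth.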
# Legend:
# Assay in all cases: growth of human tumour cells (NCI), 48 h
# 786-0 renal = tested on: 786-0 renal
# A498 renal = tested on: A498 renal
# A549 NSCLC = tested on: A549 NSCLC
# ACHN renal = tested on: ACHN renal
# BT-549 breast = tested on: BT-549 breast
# CAKI-1 renal = tested on: CAKI-1 renal
# CCRF-CEM leukemia = tested on: CCRF-CEM leukemia
# COLO 205 colon = tested on: COLO 205 colon
# DU-145 prostate = tested on: DU-145 prostate
# EKVX NSCLC = tested on: EKVX NSCLC
# HCC-2998 colon = tested on: HCC-2998 colon
# HCT-116 colon = tested on: HCT-116 colon
# HCT-15 colon = tested on: HCT-15 colon
# HL-60(TB) leukemia = tested on: HL-60(TB) leukemia
# HOP-62 NSCLC = tested on: HOP-62 NSCLC
# HOP-92 NSCLC = tested on: HOP-92 NSCLC
# HS 578T breast = tested on: HS 578T breast
# HT29 colon = tested on: HT29 colon
# IGROV1 ovarian = tested on: IGROV1 ovarian
# K-562 leukemia = tested on: K-562 leukemia
# KM12 colon = tested on: KM12 colon
# LOX IMVI melanoma = tested on: LOX IMVI melanoma
# M14 melanoma = tested on: M14 melanoma
# MALME-3M melanoma = tested on: MALME-3M melanoma
# MCF7 breast = tested on: MCF7 breast
# MDA-MB-231 breast = tested on: MDA-MB-231 breast
# MDA-MB-435 = tested on: MDA-MB-435
# MDA-N = tested on: MDA-N
# MOLT-4 leukemia = tested on: MOLT-4 leukemia
# NCI-H226 lung = tested on: NCI-H226 lung
# NCI-H23 lung = tested on: NCI-H23 lung
# NCI-H460 lung = tested on: NCI-H460 lung
# NCI-H522 lung = tested on: NCI-H522 lung
# NCI/ADR-RES ovarian = tested on: NCI/ADR-RES ovarian
# OVCAR-3 ovarian = tested on: OVCAR-3 ovarian
# OVCAR-4 ovarian = tested on: OVCAR-4 ovarian
# OVCAR-5 ovarian = tested on: OVCAR-5 ovarian
# OVCAR-8 ovarian = tested on: OVCAR-8 ovarian
# PC-3 prostate = tested on: PC-3 prostate
# RPMI-8226 leukemia = tested on: RPMI-8226 leukemia
# RXF 393 renal = tested on: RXF 393 renal
# SF-268 CNS = tested on: SF-268 CNS
# SF-295 CNS = tested on: SF-295 CNS
# SF-539 CNS = tested on: SF-539 CNS
# SK-MEL-2 melanoma = tested on: SK-MEL-2 melanoma
# SK-MEL-28 melanoma = tested on: SK-MEL-28 melanoma
# SK-MEL-5 melanoma = tested on: SK-MEL-5 melanoma
# SK-OV-3 ovarian = tested on: SK-OV-3 ovarian
# SN12C renal = tested on: SN12C renal
# SNB-19 CNS = tested on: SNB-19 CNS
# SNB-75 CNS = tested on: SNB-75 CNS
# SR leukemia = tested on: SR leukemia
# SW-620 colon = tested on: SW-620 colon
# T-47D breast = tested on: T-47D breast
# TK-10 renal = tested on: TK-10 renal
# U251 CNS = tested on: U251 CNS
# UACC-257 melanoma = tested on: UACC-257 melanoma
# UACC-62 melanoma = tested on: UACC-62 melanoma
# UO-31 renal = tested on: UO-31 renal
compound,measurement,setting,value
O=[N+]([O-])c1nccn1CCCNc1ccnc2cc(Cl)ccc12,TGI,786-0 renal,> 100 µM
same,TGI,A498 renal,> 70.9 µM
same,TGI,A549 NSCLC,> 100 µM
same,TGI,ACHN renal,> 17.8 µM
same,TGI,BT-549 breast,> 100 µM
same,TGI,CAKI-1 renal,> 7.83 µM
same,TGI,CCRF-CEM leukemia,> 100 µM
same,TGI,COLO 205 colon,> 100 µM
same,TGI,DU-145 prostate,> 100 µM
same,TGI,EKVX NSCLC,> 100 µM
same,TGI,HCC-2998 colon,55.3 µM
same,TGI,HCT-116 colon,> 100 µM
same,TGI,HCT-15 colon,> 100 µM
same,TGI,HL-60(TB) leukemia,> 100 µM
same,TGI,HOP-62 NSCLC,> 92.4 µM
same,TGI,HOP-92 NSCLC,> 21 µM
same,TGI,HS 578T breast,> 100 µM
same,TGI,HT29 colon,99.6 µM
same,TGI,IGROV1 ovarian,> 100 µM
same,TGI,K-562 leukemia,> 100 µM
same,TGI,KM12 colon,> 26.6 µM
same,TGI,LOX IMVI melanoma,> 100 µM
same,TGI,M14 melanoma,> 100 µM
same,TGI,MALME-3M melanoma,> 57.3 µM
same,TGI,MCF7 breast,> 100 µM
same,TGI,MDA-MB-231 breast,> 100 µM
same,TGI,MDA-MB-435,> 100 µM
same,TGI,MDA-N,> 100 µM
same,TGI,MOLT-4 leukemia,> 100 µM
same,TGI,NCI-H226 lung,10.8 µM
same,TGI,NCI-H23 lung,> 100 µM
same,TGI,NCI-H460 lung,> 12 µM
same,TGI,NCI-H522 lung,6.71 µM
same,TGI,NCI/ADR-RES ovarian,> 100 µM
same,TGI,OVCAR-3 ovarian,> 100 µM
same,TGI,OVCAR-4 ovarian,> 100 µM
same,TGI,OVCAR-5 ovarian,> 100 µM
same,TGI,OVCAR-8 ovarian,> 100 µM
same,TGI,PC-3 prostate,> 100 µM
same,TGI,RPMI-8226 leukemia,> 100 µM
same,TGI,RXF 393 renal,> 23 µM
same,TGI,SF-268 CNS,> 65.6 µM
same,TGI,SF-295 CNS,> 100 µM
same,TGI,SF-539 CNS,> 88.7 µM
same,TGI,SK-MEL-2 melanoma,> 95.7 µM
same,TGI,SK-MEL-28 melanoma,> 100 µM
same,TGI,SK-MEL-5 melanoma,10.9 µM
same,TGI,SK-OV-3 ovarian,> 100 µM
same,TGI,SN12C renal,> 85.1 µM
same,TGI,SNB-19 CNS,> 64.2 µM
same,TGI,SNB-75 CNS,> 100 µM
same,TGI,SR leukemia,> 75.3 µM
same,TGI,SW-620 colon,> 100 µM
same,TGI,T-47D breast,> 89.9 µM
same,TGI,TK-10 renal,> 11.7 µM
same,TGI,U251 CNS,> 100 µM
same,TGI,UACC-257 melanoma,> 9.02 µM
same,TGI,UACC-62 melanoma,> 8.46 µM
same,TGI,UO-31 renal,> 88.4 µM
Cc1ccc(NC(Nc2ccc(C)cc2C)=C(/C=C(\Cl)[N+](=O)[O-])[N+](=O)[O-])c(C)c1,TGI,786-0 renal,8.95 µM
same,TGI,A498 renal,32.4 µM
same,TGI,A549 NSCLC,35 µM
same,TGI,ACHN renal,8.26 µM
same,TGI,BT-549 breast,11.7 µM
same,TGI,CAKI-1 renal,4.23 µM
same,TGI,CCRF-CEM leukemia,1.72 µM
same,TGI,COLO 205 colon,4.99 µM
same,TGI,DU-145 prostate,33.2 µM
same,TGI,EKVX NSCLC,32.3 µM
same,TGI,HCC-2998 colon,38.4 µM
same,TGI,HCT-116 colon,3.14 µM
same,TGI,HCT-15 colon,11.5 µM
same,TGI,HL-60(TB) leukemia,2.6 µM
same,TGI,HOP-62 NSCLC,34.1 µM
same,TGI,HOP-92 NSCLC,3.99 µM
same,TGI,HS 578T breast,17 µM
same,TGI,HT29 colon,18.8 µM
same,TGI,IGROV1 ovarian,20.9 µM
same,TGI,K-562 leukemia,3.75 µM
same,TGI,KM12 colon,26.7 µM
same,TGI,LOX IMVI melanoma,3.25 µM
same,TGI,M14 melanoma,5.69 µM
same,TGI,MALME-3M melanoma,7.13 µM
same,TGI,MCF7 breast,12.4 µM
same,TGI,MDA-MB-231 breast,17.3 µM
same,TGI,MDA-MB-435,7.98 µM
same,TGI,MDA-N,10.9 µM
same,TGI,MOLT-4 leukemia,4.82 µM
same,TGI,NCI-H226 lung,22.1 µM
same,TGI,NCI-H23 lung,20.8 µM
same,TGI,NCI-H460 lung,36.7 µM
same,TGI,NCI-H522 lung,4.52 µM
same,TGI,NCI/ADR-RES ovarian,48.8 µM
same,TGI,OVCAR-3 ovarian,8.7 µM
same,TGI,OVCAR-4 ovarian,12.9 µM
same,TGI,OVCAR-5 ovarian,19.7 µM
same,TGI,OVCAR-8 ovarian,7.86 µM
same,TGI,PC-3 prostate,17.2 µM
same,TGI,RPMI-8226 leukemia,4.36 µM
same,TGI,RXF 393 renal,3.75 µM
same,TGI,SF-268 CNS,10.3 µM
same,TGI,SF-295 CNS,31.2 µM
same,TGI,SF-539 CNS,23.3 µM
same,TGI,SK-MEL-2 melanoma,16.9 µM
same,TGI,SK-MEL-28 melanoma,4.77 µM
same,TGI,SK-MEL-5 melanoma,13.4 µM
same,TGI,SK-OV-3 ovarian,21 µM
same,TGI,SN12C renal,14.4 µM
same,TGI,SNB-19 CNS,26 µM
same,TGI,SNB-75 CNS,16.4 µM
same,TGI,SR leukemia,4.13 µM
same,TGI,SW-620 colon,4.02 µM
same,TGI,T-47D breast,3.99 µM
same,TGI,TK-10 renal,13.2 µM
same,TGI,U251 CNS,23.6 µM
same,TGI,UACC-257 melanoma,13.1 µM
same,TGI,UACC-62 melanoma,10 µM
same,TGI,UO-31 renal,19.2 µM
